Measured values as given in ChEMBL document CHEMBL4304766, “DMSO-Perturbing Assay for Identifying Promiscuous Enzyme Inhibitors” (ACS Med Chem Lett, 2019).
The source made the active and inactive calls. The calls are words filed in the database; no cut-off is given here.

Columns and labels:
[1] = target: T1, Chymotrypsinogen A (Bos taurus, UniProt P00766); assay: (§1) Inhibition of alpha-chymotrypsin in bovine pancreas using SPpNA as substrate pretreated with enzyme for 30 mins followed by substrate addition and measured for 12 mins by spectrophotometric analysis
[2] = Drug metabolism in DMSO-d6/potassium phosphate buffer assessed as drug recovery with small amount of metabolite formation by 1H-NMR analysis
[3] = target: T2, Beta-lactamase (Enterobacter cloacae, UniProt P05364); assay: Inhibition of Enterobacter cloacae beta-lactamase incubated for 10 mins followed by nitrocefin substrate challenge and measured for 5 mins by spectrophotometric analysis
T2 sequence (P05364 whole entry): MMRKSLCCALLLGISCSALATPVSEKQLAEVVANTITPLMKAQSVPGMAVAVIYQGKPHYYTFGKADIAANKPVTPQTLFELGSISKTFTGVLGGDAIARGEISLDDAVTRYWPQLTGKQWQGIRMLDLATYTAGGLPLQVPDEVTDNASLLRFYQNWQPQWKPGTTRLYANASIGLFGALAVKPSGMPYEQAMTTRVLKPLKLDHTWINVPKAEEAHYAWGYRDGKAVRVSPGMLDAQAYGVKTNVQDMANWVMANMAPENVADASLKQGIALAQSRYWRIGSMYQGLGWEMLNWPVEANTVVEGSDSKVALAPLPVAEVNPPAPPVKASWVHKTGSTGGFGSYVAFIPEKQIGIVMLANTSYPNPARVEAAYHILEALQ

[4] = target: T2, Beta-lactamase; assay: Inhibition of Enterobacter cloacae beta-lactamase incubated for 10 mins followed by nitrocefin substrate challenge and measured for 5 mins in presence of Triton X-100 by spectrophotometric analysis
[5] = target: Beta-lactamase (Enterobacter cloacae) (UniProt P05364); assay: Inhibition of Enterobacter cloacae beta-lactamase at 200 uM incubated for 10 mins followed by nitrocefin substrate challenge and measured for 5 mins in presence of 1 mM DTT by spectrophotometric analysis relative to control
Sequence of Beta-lactamase (Enterobacter cloacae) (P05364 21-381 limits assumed): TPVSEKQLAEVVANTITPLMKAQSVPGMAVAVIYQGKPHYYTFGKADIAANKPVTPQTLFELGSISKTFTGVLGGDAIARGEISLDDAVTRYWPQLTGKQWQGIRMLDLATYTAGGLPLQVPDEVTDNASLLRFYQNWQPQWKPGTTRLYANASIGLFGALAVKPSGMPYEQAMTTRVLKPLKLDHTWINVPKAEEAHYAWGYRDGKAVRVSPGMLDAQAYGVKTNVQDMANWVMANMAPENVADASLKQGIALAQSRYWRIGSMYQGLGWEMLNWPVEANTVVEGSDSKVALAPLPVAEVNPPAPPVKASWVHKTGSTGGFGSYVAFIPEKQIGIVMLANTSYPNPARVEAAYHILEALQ

[6] = tested on: Bacillus cereus; assay: Inhibition of Bacillus cereus 569/H9 beta-lactamase incubated for 10 mins followed by nitrocefin substrate challenge and measured for 5 mins by spectrophotometric analysis
[7] = target: Chymotrypsinogen A (Bos taurus) (UniProt P00766); assay: Inhibition of bovine pancreas alpha-chymotrypsin at concentration of 6 uM using SPpNA as substrate treated with enzyme for 30 mins following enzyme incubation with 0.7 to 2.1 M DMSO for 5 mins followed by substrate addition and measured for 12 mins by DMSO-perturbation assay
[8] = target: T1, Chymotrypsinogen A; assay: Inhibition of alpha-chymotrypsin in bovine pancreas using SPpNA as substrate pretreated with enzyme for 30 mins followed by substrate addition and measured for 12 mins in presence of Triton X-100 by spectrophotometric analysis
[9] = target: Chymotrypsinogen A (Bos taurus) (UniProt P00766); assay: Inhibition of bovine pancreas alpha-chymotrypsin at concentration of 6 nM using SAAPPpNA as substrate treated with enzyme for 30 mins following enzyme incubation with 0.7 to 2.1 M DMSO for 5 mins followed by substrate addition and measured for 12 mins by DMSO-perturbation assay
[10] = target: T2, Beta-lactamase; assay: (§2) Inhibition of Enterobacter cloacae beta-lactamase incubated for 10 mins followed by nitrocefin substrate challenge and measured for 5 mins in presence of 1 mM DTT by spectrophotometric analysis
[11] = target: Beta-lactamase (Enterobacter cloacae) (UniProt P05364); assay: Inhibition of Enterobacter cloacae beta-lactamase at 500 uM incubated for 10 mins followed by nitrocefin substrate challenge and measured for 5 mins by spectrophotometric analysis relative to control
[12] = target: Chymotrypsinogen A (Bos taurus) (UniProt P00766); assay: Inhibition of alpha-chymotrypsin in bovine pancreas at 300 uM using SPpNA as substrate pretreated with enzyme for 30 mins followed by substrate addition and measured for 12 mins by spectrophotometric analysis relative to control
[13] = target: Beta-lactamase (Enterobacter cloacae) (UniProt P05364); assay: as §2
[14] = target: Chymotrypsinogen A (Bos taurus) (UniProt P00766); assay: as §1
[15] = tested on: Bacillus cereus; assay: Inhibition of Bacillus cereus 569/H9 beta-lactamase treated with enzyme for 10 mins following enzyme incubation with 0.7 to 2.1 M DMSO for 5 mins followed by nitrocefin substrate challenge and measured for 5 mins by DMSO-perturbation assay

## CC(=O)c1c(O)c(C)c(O)c(Cc2c(O)c3c(c(C(=O)/C=C/c4ccccc4)c2O)OC(C)(C)C=C3)c1O [ROTTLERIN]
[1]
  IC50: Nd(Insoluble)
[2]
  Drug metabolism: Metabolite detected
[3]; read-out: IC50
  IC50: 96 µM
[4]
  IC50: 142 µM
[5]
  inhibition: < 50%

## CC1(C)[C@@H](O[C@H]2O[C@H](C(=O)O)[C@@H](O)[C@H](O)[C@H]2O[C@@H]2O[C@H](C(=O)O)[C@@H](O)[C@H](O)[C@H]2O)CC[C@]2(C)[C@H]3C(=O)C=C4[C@@H]5C[C@@](C)(C(=O)O)CC[C@]5(C)CC[C@@]4(C)[C@]3(C)CC[C@@H]12
[6]
  inhibition: inactive

## CC(C)C[C@@H](N)C(=O)N[C@@H](Cc1ccccc1)C(=O)NCc1ccc(F)cc1
[7]
  inhibition: Active

## Oc1cc(O)c2c(c1)O[C@H](c1ccc(O)c(O)c1)[C@H](O)C2
[6]
  inhibition: inactive

## O=c1cc(-c2ccc(O)c(O)c2)oc2ccccc12
[1]; read-out: IC50
  IC50: 226 µM
[3]
  IC50: Nd(Insoluble)
[8]
  IC50: 270 µM

## O=c1c(O)c(-c2ccc(O)c(O)c2)oc2cc(O)cc(O)c12 [QUERCETIN]
[2]
  Drug metabolism: Metabolite detected
[3]; read-out: IC50
  IC50: 85 µM
[9]
  inhibition: Active
[4]
  IC50: > 500 µM
[7]
  inhibition: Active
[10]
  IC50: 224 µM

## C[C@@H]1O[C@@H](OC[C@H]2O[C@@H](Oc3c(-c4ccc(O)c(O)c4)oc4cc(O)cc(O)c4c3=O)[C@H](O)[C@@H](O)[C@@H]2O)[C@H](O)[C@H](O)[C@H]1O [RUTIN]
[1]; read-out: IC50
  IC50: 296 µM
[3]; read-out: IC50
  IC50: > 500 µM
[8]
  IC50: 281 µM
[11]
  inhibition: 15%
[7]
  inhibition: Active

## O=C(CCc1ccc(O)cc1)c1c(O)cc(O)cc1O [PHLORETIN]
[1]; read-out: IC50
  IC50: > 300 µM
[3]; read-out: IC50
  IC50: 496 µM
[12]
  inhibition: 9.9%
[13]
  inhibition: Active

## CC1(C)S[C@@H]2[C@H](NC(=O)Cc3ccccc3)C(=O)N2[C@H]1C(=O)O [PENICILLIN G SODIUM]
[3]; read-out: IC50
  IC50: 7.2 µM
[4]
  IC50: 3.6 µM

## O=C(O)[C@H]1O[C@@H](Oc2cc3oc(-c4ccccc4)cc(=O)c3c(O)c2O)[C@H](O)[C@@H](O)[C@@H]1O
[6]
  inhibition: inactive

## O=C(O)c1cc(=O)c2c(OCC(O)COc3cccc4oc(C(=O)O)cc(=O)c34)cccc2o1
[14]
  inhibition: inactive
[6]
  inhibition: inactive

## COc1ccc2c(c1)c(CC(=O)O)c(C)n2C(=O)c1ccc(Cl)cc1
[14]
  inhibition: inactive
[6]
  inhibition: inactive

## O=C(O[C@@H]1Cc2c(O)cc(O)cc2O[C@@H]1c1cc(O)c(O)c(O)c1)c1cc(O)c(O)c(O)c1
[6]
  inhibition: inactive

## CCCCCCCCCCCCCCCC(=O)OC[C@H](O)[C@H]1OC(=O)C(O)=C1O
[14]
  inhibition: inactive
[6]
  inhibition: inactive

## O=C(O)[C@H]1/C(=C/CO)O[C@@H]2CC(=O)N21
[15]
  inhibition: Active
